Measurements from PMC5639367, “Structure‐Guided Design of Peptides as Tools to Probe the Protein–Protein Interaction between Cullin‐2 and Elongin BC Substrate Adaptor in Cullin RING E3 Ubiquitin Ligases” (Chemmedchem, 2017).
Like-named read-outs stand apart in the source and are kept apart here. Square brackets hold non-standard residues; d marks the D form. Ends that are not written are not given here. Peptide text beside a SMILES is read from it. Chg = N[C@H](C(=O)O)C1CCCCC1; Pen = CC(C)(S)[C@H](N)C(=O)O; Phg = N[C@H](C(=O)O)c1ccccc1; Tle = CC(C)(C)[C@H](N)C(=O)O; Nva = CCC[C@H](N)C(=O)O

Experiments:
[1] = biological target: T1, VBC (Homo sapiens, UniProt P40337+Q15369+Q15370); test: Biolayer interferometry (BLI) binding of peptides to immobilised VBC
T1 construct: made in house; host or cells: E. coli BL21(DE3)
Procedure: Biolayer interferometry: BLI experiments were performed in an Octet RED384 (FòrteBio). Biotinylated VBC (25 μg mL^−1) was immobilized on Super Streptavidin‐coated biosensor (FòrteBio). The experiments were conducted at 25 °C, in 20 mM HEPES pH 7.6, 100 mM NaCl, 1 mM DTT and 0.02 % (v/v) Tween‐20 buffer. The response of the reference tips was subtracted from the signal to account for unspecific binding. The data points were fitted using a 1:1 model. […]
peptides. Biotinylated VBC was immobilised on the tips and the peptides were tested in a concentration range from 27 µM to 7 mM. The different colours represent the different concentrations and corresponding responses. The assay was performed […]
Figure S2 – Biolayer interferomery experiments with the alanine scan peptides.
Biotinylated VBC was immobilised on the tips and the peptides were tested in a concentration range from 27 µM to 7 mM. The different colours represent the different concentrations and corresponding responses. The assay was performed in […]
leucine replacement versus VBC tested on a concentration-dependent assay. […]

[2] = biological target: T2, native interaction between VBC and Cul2 (Homo sapiens, UniProt P40337+Q15369+Q15370); test: AlphaLISA competition assay to displace Cul2 from VBC; format: binding; details: V6×HisBC 500 nM, biotinylated Rbx1-Cul2 150 nM
T2 construct: made in house; host or cells: E. coli BL21(DE3) for VBC
Procedure: AlphaLISA: Anti‐His6 acceptor beads and Streptavidin donor beads (PerkinElmer) were used. […] The final volume of each well was 20 μL. The plate was then read in a PHERAstar FS (BMG LABTECH). Each of the competitors was titrated in quadruplicate. The fitting and IC50 determination were performed in GraphPad Prism 7 (GraphPad Software, La Jolla, CA, USA).

[3] = Precipitation of peptides in the conditions of the BLI experiment; format: physicochemical; details: 20 mM HEPES pH 7.6, 100 mM NaCl, 1 mM DTT, 0.02 % Tween-20, 25 °C; visual
Procedure: Based on the structural analysis of the Cul2‐VBC interface, we first aimed to recapitulate the interaction using N‐terminal Cul2 peptides varying from three to eleven residues. […] Thus, the next step was to enhance the binding affinity of the peptides toward VBC.
Biolayer interferometry: BLI experiments were performed in an Octet RED384 (FòrteBio). Biotinylated VBC (25 μg mL^−1) was immobilized on Super Streptavidin‐coated biosensor (FòrteBio). The experiments were conducted at 25 °C, in 20 mM HEPES pH 7.6, 100 mM NaCl, 1 mM DTT and 0.02 % (v/v) Tween‐20 buffer. The response of the reference tips was subtracted from the signal to account for unspecific binding. The data points were fitted using a 1:1 model.

[4] = 8-mer peptide variants replacing Leu3, BLI, biotinylated VBC on Super Streptavidin biosensor, peptides 27 µM to 7 mM, 20 mM HEPES pH 7.6, 100 mM NaCl, 1 mM DTT, 0.02% Tween-20, 25 °C, 1:1 model, read-out: K d

Compound | Kd [1, 4] [µM] | other results
CCC[C@H](NC(=O)[C@H](CO)NC(=O)[C@@H](N)CCSC)C(=O)N[C@@H](CCCCN)C(=O)N1CCC[C@H]1C(=O)N[C@@H](CCCNC(=N)N)C(=O)N[C@H](C(=O)N[C@H](C(N)=O)C(C)C)C(C)C [F] (H-MS[Nva]KPRVV-NH2) | 1900 ± 200 | –
CSCC[C@H](N)C(=O)N[C@@H](CO)C(=O)N[C@H](C(=O)N[C@@H](CCCCN)C(=O)N1CCC[C@H]1C(=O)N[C@@H](CCCNC(=N)N)C(=O)N[C@H](C(=O)N[C@H](C(N)=O)C(C)C)C(C)C)C(C)(C)C [G] (H-MS[Tle]KPRVV-NH2) | 900 ± 100 | –
CSCC[C@H](N)C(=O)N[C@@H](CO)C(=O)N[C@H](C(=O)N[C@@H](CCCCN)C(=O)N1CCC[C@H]1C(=O)N[C@@H](CCCNC(=N)N)C(=O)N[C@H](C(=O)N[C@H](C(N)=O)C(C)C)C(C)C)c1ccccc1 [H] (H-MS[Phg]KPRVV-NH2) | 2100 ± 600 | –
CSCC[C@H](N)C(=O)N[C@@H](CO)C(=O)N[C@H](C(=O)N[C@@H](CCCCN)C(=O)N1CCC[C@H]1C(=O)N[C@@H](CCCNC(=N)N)C(=O)N[C@H](C(=O)N[C@H](C(N)=O)C(C)C)C(C)C)C1CCCCC1 [I] (H-MS[Chg]KPRVV-NH2) | 8900 ± 700 | –
CSCC[C@H](N)C(=O)N[C@@H](CO)C(=O)N[C@H](C(=O)N[C@@H](CCCCN)C(=O)N1CCC[C@H]1C(=O)N[C@@H](CCCNC(=N)N)C(=O)N[C@H](C(=O)N[C@H](C(N)=O)C(C)C)C(C)C)C(C)(C)S [Peptide J] (H-MS[Pen]KPRVV-NH2) | – | Displacement of Cul2 from VBC in AlphaLISA (in words) [2]: displace Cul2
MSFKPRVV-NH2 [C] | 3100 ± 200 | –
MSLKPRAV-NH2 | – | Kd [1]: 2100 ± 600 µM
MSLKPRVVD [9‐mer] | – | Precipitation in the conditions of the BLI experiment (in words) [3]: formed a white precipitate
MSLKPRVVDFD [11‐mer] | – | Precipitation in the conditions of the BLI experiment (in words) [3]: formed a white precipitate
MSYKPRVV-NH2 [D] | 7400 ± 400 | –
